Structures can show the parent of a compound that is named as a salt. Where two headings read alike, the source gives them in different places. Marks after values point to notes of the source that are not given here.
What was measured:
[1] = system: MRMT-1 rat mammary gland carcinoma cells; test: Rat MRMT-1 bone metastasis model (osteolysis, osteoclasts, tumor); assay type: in vivo; design: key to Microradiograph score (five point visual score): 0 = no destruction to 5 = bi-cortical bone loss/fracture; key to Trabecular bone vol score (three point visual score): 0 = none, 1 = 1-10%, 2 = >10-<40% (normal), 3 = >40% area; key to Tumor vol score (three point visual score): 0 = none, 1 = small, 2 = moderate, 3 = large tumor; settings: for Microradiograph score (five point visual score) / Osteoclast Counts (TRAP positive cells, mean of three 200x fields) / Trabecular bone vol score (three point visual score) / Tumor vol score (three point visual score): Day 3 to Day 17, mean ± SEM
Method: Rat MRMT-1 bone metastasis model. Inoculation of rat mammary MRMT-1 adenocarcinoma cells into tibiae has been described as a bone metastasis model (Medhurst S J, et al., Pain 2002; 96:129-40. An adaptation of the model (Roudier M P, et al., Clin Exp Metastasis 2006, 23:167-75) was performed by MDS Pharma Services (Bothel, Wash.). Female Sprague-Dawley rats (Harlan Sprague Dawley, Inc., Indianapolis, Ind.) approximately 125-150 grams were acclimated one week. The animals were anesthetized with ketamine/xylazine, and the right leg area was shaved and scrubbed with chlorhexadine and 70% ethanol (SOP-SUR026). A 1-cm rostral-caudal incision was made in the skin over the top half of the tibia. Blunt-dissection exposed the proximal tibia, and a Hamilton syringe guided by a 23-gauge needle was used to inject 3 μl of saline (sham) or saline containing 3×10^4 MRMT-1 cells into the medullary cavity of the right proximal tibia of each rat. The injection site was closed with bone wax. The wound was closed with surgical staples. […] To serve as a control, a fourth group was dosed QOD sc with 0.03 mg/kg zoledronate in saline. Eight rats were dosed per group. Rats were sacrificed on Day 17. Right tibiae were excised, together with surrounding tumor tissue, and microradiographs prepared using an MX-20 x-ray system (Faxitron X-ray Corporation, Wheeling, Ill.). Microradiographs were scored for tumor-induced osteolysis as follows: 0, no signs of destruction; 1, one to three small radiolucent lesions; 2, three to six lesions and loss of medullary bone; 3, loss of medullary bone and erosion of cortical bone; 4, full thickness uni-cortical bone loss; 5, full thickness bi-cortical bone loss and/or displaced skeletal fracture. The radiographs were used to select representative bones from each group for microCT imaging. All tibia were fixed in 10% neutral buffered formalin for two days, decalcified and sectioned for histopathological evaluation. TRAP staining was performed as described previously in Liu, C., et al., 1987. […] For each tibia, the numbers of tumor-associated TRAP^+ osteoclasts were counted in the three 200×-fields with highest osteoclast frequency. A semi-quantitative three-point scoring method was used to compare treatment groups with regards to trabecular bone volume (3, >40 area; 2, >10%<40% area (normal); 1, 1-10% area; 0, none) and tumor volume (3, large; 2, moderate; 1, small; 0, none).

[2] = system: MRMT-1 cells; test: Tactile (mechanical) allodynia in the MRMT-1 model; assay type: in vivo, rat
Method: Rat MRMT-1 bone metastasis model. Inoculation of rat mammary MRMT-1 adenocarcinoma cells into tibiae has been described as a bone metastasis model (Medhurst S J, et al., Pain 2002; 96:129-40. An adaptation of the model (Roudier M P, et al., Clin Exp Metastasis 2006, 23:167-75) was performed by MDS Pharma Services (Bothel, Wash.). Female Sprague-Dawley rats (Harlan Sprague Dawley, Inc., Indianapolis, Ind.) approximately 125-150 grams were acclimated one week. The animals were anesthetized with ketamine/xylazine, and the right leg area was shaved and scrubbed with chlorhexadine and 70% ethanol (SOP-SUR026). A 1-cm rostral-caudal incision was made in the skin over the top half of the tibia. […] Microradiographs were scored for tumor-induced osteolysis as follows: 0, no signs of destruction; 1, one to three small radiolucent lesions; 2, three to six lesions and loss of medullary bone; 3, loss of medullary bone and erosion of cortical bone; 4, full thickness uni-cortical bone loss; 5, full thickness bi-cortical bone loss and/or displaced skeletal fracture. […] For each tibia, the numbers of tumor-associated TRAP^+ osteoclasts were counted in the three 200×-fields with highest osteoclast frequency. […]
Pain Behavioral Assessments. […] The behavioral test for tactile allodynia, measured prior to surgery, was used for randomization of animals to the treatment groups. […]

[3] = system: H460, MDA-MB-231, A375; test: Growth factor-independent proliferation of adenocarcinoma cells; assay type: cell-based, human
[4] = system: NCI-H460 human lung carcinoma cells; settings: for final tumor weights reduced by: at study termination
[5] = system: NCTC 2472 osteolytic sarcoma cells; test: 2472 sarcoma model of secondary bone tumor: osteolysis and histology; assay type: in vivo, mouse; settings: for Bone erosion score (visual, scale 0-5, microradiographs): Day 15
Method: (§1) 2472 sarcoma model of secondary bone tumor pain and osteolysis. Experiments were performed on adult male C3H/HeJ mice (Jackson Laboratories, Bar Harbor, Me., USA), approximately 7-8 weeks old, weighing 25-30 g at the time of tumor cell injection. An arthrotomy was performed following induction of general anesthesia with ketamine/xylazine (2:1 ratio; intramuscular (i.m.)). A needle was inserted into the intramedullary canal to create a pathway for the sarcoma cells. A depression was then made using a pneumatic dental high speed handpiece. Mice were injected with Hanks buffered saline (HBSS) (20 ul, Sigma, St. Louis, Mo., USA) or HBSS containing the 2472 sarcoma line (ATCC, Rockville, Md., USA). The injection site is sealed with a dental amalgam plug to confine the cells within the intramedullary canal and followed by irrigation with sterile water (hypotonic solution). Finally, incision closure is achieved with a wound clip. Clips are removed at day 5 as not to interfere with behavioral testing.
The extent of tumor-induced bone reorganization (osteolysis) was radiologically assessed using Faxitron analysis (Specimen Radiography System Model MX-20, Faxitron X-ray Corporation, Wheeling, Ill., and Kodak film Min-R 2000, Rochester, N.Y.). Radiographs of tumor-bearing femora were scored on a 0 to 5 scale: (0) normal bone with no signs of destruction; (1) small pits of bone destruction (1-3 in number); (2) increased pitted appearance (3-6) and loss of medullary bone; (3) loss of medullary bone and erosion of cortical bone; (4) full thickness unicortical bone loss; (5) full thickness bicortical bone loss and displaced skeletal fracture.

[6] = system: NCTC 2472 osteolytic sarcoma cells; test: 2472 sarcoma model: pain-related behaviors; assay type: in vivo, mouse
Method: as §1
A variety of behavioral measurements were used to assess the extent of bone cancer pain.
Spontaneous nocifensive behaviors: The number of spontaneous flinches and guarding, representative of nociceptive behavior, were recorded during a 2-minute observation period. Flinches are defined as number of times the animal raises its hindpaw and guarding as the amount of time animals hold the hindpaw aloft while stationary.
Palpation-induced nocifensive behaviors: Mechanical allodynia at the knee joint was evaluated by normally non-noxious palpation of the distal femur every second for 2 minutes. Following the 2-minute palpation, the mice were placed in the observation box and their palpation-induced guarding and flinching behavior was measured for an additional 2 minutes, as discussed above.

[7] = JNJ-141 20 mpk oral twice daily
[8] = JNJ-141 60 mpk oral twice daily
[9] = 25 mg/kg oral twice daily, mean ± SEM
[10] = 50 mg/kg oral twice daily, mean ± SEM
[11] = 100 mg/kg oral twice daily, mean ± SEM
[12] = 60 mg/kg oral twice daily, tumor mice
[13] = 120 mg/kg oral twice daily, sham mice
[14] = 120 mg/kg oral twice daily, tumor mice

O=P(O)(O)C(O)(Cn1ccnc1)P(=O)(O)O [zoledronate, reference compound]
full thickness cortical bone lesions ([1]; treated rats, day 17): not observed
tumor-associated osteoclasts reduced by ([1]; zoledronate 0.03 mg/kg QOD sc): 64%
Microradiograph score (five point visual score) ([1]; zoledronate 0.03 mpk QOD sc): 0.38 ± 0.20
Osteoclast Counts (TRAP positive cells, mean of three 200x fields) ([1]; zoledronate 0.03 mpk QOD sc): 21.0 ± 3.2
Trabecular bone vol score (three point visual score) ([1]; zoledronate 0.03 mpk QOD sc): 2.63 ± 0.20
Tumor vol score (three point visual score) ([1]; zoledronate 0.03 mpk QOD sc): 1.63 ± 0.20
mechanical allodynia compared to tumor-inoculated animals ([2]; zoledronate treatment): decreased allodynia compared to tumor-inoculated animals but this effect did not reach statistical significance

CN1CC[C@]23c4c5ccc(O)c4O[C@H]2[C@@H](O)C=C[C@H]3[C@H]1C5 [morphine]
mechanical allodynia of affected animals ([2]; morphine, from the 2nd time point forward): reversed allodynia

CN(C)CC(=O)N1CCC(c2ccc(NC(=O)c3nc(C#N)c[nH]3)c(C3=CCCCC3)c2)CC1 [JNJ-141, 4-cyano-N-[2-(1-cyclohexen-1-yl)-4-[1-[(dimethylamino)acetyl]-4-piperidinyl]phenyl]-1H-imidazole-2-carboxamide monohydrochloride]
growth factor-independent (serum-dependent) proliferation in culture ([3]; 5 μM, monohydrochloride): did not inhibit
IC50 ([3]; Homo sapiens, H460, MDA-MB-231, A375, no stimulus, determined once): > 5 µM
Microradiograph score (five point visual score) [1, 7]: 0.75 ± 0.17
Osteoclast Counts (TRAP positive cells, mean of three 200x fields) [1, 7]: 3.7 ± 0.7
Tumor vol score (three point visual score) [1, 7]: 1.75 ± 0.48
tumor-associated osteoclasts reduced by ([1]; JNJ-141 20 or 60 mg/kg oral twice daily): greater than 95%
Microradiograph score (five point visual score) [1, 8]: 0.83 ± 0.18
Osteoclast Counts (TRAP positive cells, mean of three 200x fields) [1, 8]: 2.6 ± 1.5
Trabecular bone vol score (three point visual score) [1, 8]: 2.33 ± 0.23
Tumor vol score (three point visual score) [1, 8]: 1.50 ± 0.55
Mean final tumor weight, mg ([4]; 25 mg/kg oral twice daily (qd on weekends) from day 3, mean ± SEM): 1,257 ± 209 mg
Macrophage density, % area (F4/80 positive, 200X-field) [4, 9]: 4.3 ± 0.68 % area
Microvascular density, % area (CD31 positive) [4, 9]: 3.73 ± 0.81 % area
final tumor weights reduced by ([4]; 25 mg/kg oral): 21%
Mean final tumor weight, mg ([4]; 50 mg/kg oral twice daily (qd on weekends) from day 3, mean ± SEM): 1,070 ± 121 mg
Macrophage density, % area (F4/80 positive, 200X-field) [4, 10]: 2.6 ± 0.57 % area
Microvascular density, % area (CD31 positive) [4, 10]: 2.10 ± 0.57 % area
final tumor weights reduced by ([4]; 50 mg/kg oral): 32%
Mean final tumor weight ([4]; 100 mg/kg oral twice daily (qd on weekends) from day 3, mean ± SEM): 870 ± 94 mg
Macrophage density, % area (F4/80 positive, 200X-field) [4, 11]: 0.31 ± 0.14 % area
Microvascular density, % area (CD31 positive) [4, 11]: 1.25 ± 0.16 % area
final tumor weights reduced by ([4]; 100 mg/kg oral): 45%
reduction in tumor vascularity (vessel density) ([4]; highest dose (100 mg/kg)): 66%
Bone erosion score (visual, scale 0-5, microradiographs) ([5]; 60 mg/kg oral twice daily, NCTC 2472 tumor mice): 3.5
Macrophage Counts (CD68 positive cells) [5, 12]: 84** Counts per high powered field
Osteoclast Counts (TRACP positive cells) [5, 12]: 79** Counts per high powered field
Tumor area % marrow [5, 12]: 100%
Bone erosion score (visual, scale 0-5, microradiographs) ([5]; 120 mg/kg oral twice daily, NCTC 2472 tumor mice): 2.0**
Bone erosion score (visual, scale 0-5, microradiographs) ([5]; 120 mg/kg oral twice daily, sham (saline) mice): 0.25
Macrophage Counts (CD68 positive cells) [5, 13]: 28 Counts per high powered field
Osteoclast Counts (TRACP positive cells) [5, 13]: 41 Counts per high powered field
Macrophage Counts (CD68 positive cells) [5, 14]: 140* Counts per high powered field
Osteoclast Counts (TRACP positive cells) [5, 14]: 147 Counts per high powered field
Tumor area % marrow [5, 14]: 90%
PIF Day 7 (palpation-induced flinches over 2 minutes) [6, 12]: 10.3
PIF Day 9 (palpation-induced flinches over 2 minutes) [6, 12]: 14.3
PIF Day 11 (palpation-induced flinches over 2 minutes) [6, 12]: 16.3
PIF Day 13 (palpation-induced flinches over 2 minutes) [6, 12]: 12.7*
PIF Day 15 (palpation-induced flinches over 2 minutes) [6, 12]: 11.7**
PIG Day 15 (palpation-induced guarding time over 2 minutes) [6, 12]: 9.1* sec
SF Day 15 (spontaneous flinches over 2 minutes) [6, 12]: 10*
SG Day 15 (spontaneous guarding time over 2 minutes) [6, 12]: 7.9 s
PIF Day 7 (palpation-induced flinches over 2 minutes) [6, 13]: 2.5
PIF Day 9 (palpation-induced flinches over 2 minutes) [6, 13]: 1.3
PIF Day 11 (palpation-induced flinches over 2 minutes) [6, 13]: 1.3
PIF Day 13 (palpation-induced flinches over 2 minutes) [6, 13]: 1.8
PIF Day 15 (palpation-induced flinches over 2 minutes) [6, 13]: 1.8
PIG Day 15 (palpation-induced guarding time over 2 minutes) [6, 13]: 0.9 s
SF Day 15 (spontaneous flinches over 2 minutes) [6, 13]: 1.3
SG Day 15 (spontaneous guarding time over 2 minutes) [6, 13]: 0.6 s
PIF Day 7 (palpation-induced flinches over 2 minutes) [6, 14]: 9.5
PIF Day 9 (palpation-induced flinches over 2 minutes) [6, 14]: 7.8**
PIF Day 11 (palpation-induced flinches over 2 minutes) [6, 14]: 8.5**
PIF Day 13 (palpation-induced flinches over 2 minutes) [6, 14]: 10.3**
PIF Day 15 (palpation-induced flinches over 2 minutes) [6, 14]: 9.3**
PIG Day 15 (palpation-induced guarding time over 2 minutes) [6, 14]: 6.4** sec
SF Day 15 (spontaneous flinches over 2 minutes) [6, 14]: 8.5**
SG Day 15 (spontaneous guarding time over 2 minutes) [6, 14]: 6.1** sec
palpation induced flinching reduced by ([6]; 120 mg/kg, Day 15): approximately 50%

Source: patent publication US20100256148A1, “USE OF CFMS INHIBITOR FOR TREATING OR PREVENTING BONE CANCER AND THE BONE LOSS AND BONE PAIN ASSOCIATED WITH BONE CANCER” (priority 2007, published 2010)
